Key:
Anas platyrhynchos = details: short-term; oral; feed; mortality
Rattus norvegicus = details: for LD50: acute, oral, mortality
Colinus virginianus = details: acute; oral; mortality
Lepomis macrochirus = details: acute; duration: 96 hours
Apis mellifera = details: acute, mortality
Coturnix japonica = details: reproduction developmental
Tagia sp. = details: for LC50: acute; for NOEC: chronic/long-term, duration: 8 weeks
Hypoaspis aculeifer = assay: LR50; higher = less toxic; details: acute
Folsomia candida = details: chronic/long-term; duration: 28 days
[1] = reproduction developmental, reproduction

SMILES	LC50 (Anas platyrhynchos)	LD50 (Rattus norvegicus)	NOAEL (Rattus norvegicus; [1])	NOEL (Rattus norvegicus; [1])	LD50 (Colinus virginianus)	LC50 (Lepomis macrochirus)	LD50 (Apis mellifera; dermal)	LD50 (Apis mellifera; oral, unspecified)	NOAEL (Coturnix japonica)	LC50 (Tagia sp.; duration: 14 days)	NOEC (Tagia sp.)	LR50 (Hypoaspis aculeifer)	LD50 (Rattus norvegicus; F)	NOAEC (Folsomia candida)	LC50 (Tagia sp.)
COC(=O)[N-]S(=O)(=O)c1ccc(N)cc1.[Na+] [Asulam-sodium]	> 100000 mg/kg	> 4560 mg/kg-day	46 mg/kg-day	46 mg/kg-day	> 1830 mg/kg-day	> 91.3 µg/mL	> 100 µg/piece	> 124 µg/piece	65 mg/kg-day	1000 mg/kg	181 mg/kg	> 4370 mg/kg	–	–	–
Nc1ccc(S(N)(=O)=O)cc1 [Sulfanilamide]	–	–	–	–	–	–	–	–	–	–	3.75 mg/kg	–	> 2000 mg/kg-day	50 mg/kg	> 1000 mg/kg

From EPA's ToxValDB 9.5 (doi:10.2903/j.efsa.2018.5251)
